Assays:
[1] = tested on: windgrass; assay: Test Example 5: herbicidal effect by foliage application, plastic box (Table 20, symbol L); type: in vivo, windgrass (Apera spica-venti); details: foliage application; for herbicidal effect on L: windgrass: 320 g/ha, evaluated three weeks after application
Summary of the method: (§1)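 Sow seeds spot-wise in sterilized diluvial soil; cover with ~1.5 cm soil. Grow 14 days in greenhouse, 25° C. to 30° C. Spray foliage with emulsion diluted to predetermined amount. Rate effect after 3 weeks.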

[2] = tested on: wild oat; assay: Test Example 5: herbicidal effect by foliage application, plastic box (Table 20, symbol I); type: in vivo, wild oat (Avena fatua); details: foliage application; for herbicidal effect on I: wild oat: 320 g/ha, evaluated three weeks after application
Summary of the method: as §1

[3] = tested on: barnyard grass; assay: Test Example 5: herbicidal effect by foliage application, plastic box (Table 20, symbol H); type: in vivo, barnyard grass (Echinochloa crus-galli); details: foliage application; for herbicidal effect on H: barnyard grass: 320 g/ha, evaluated three weeks after application
Summary of the method: as §1

[4] = tested on: velvetleaf; assay: Test Example 5: herbicidal effect by foliage application, plastic box (Table 20, symbol M); type: in vivo, velvetleaf (Abutilon theophrasti); details: foliage application; for herbicidal effect on M: velvetleaf: 320 g/ha, evaluated three weeks after application
Summary of the method: as §1

[5] = tested on: green foxtail; assay: Test Example 5: herbicidal effect by foliage application, plastic box (Table 20, symbol G); type: in vivo, green foxtail (Setaria viridis); details: foliage application; for herbicidal effect on G: green foxtail: 320 g/ha, evaluated three weeks after application
Summary of the method: as §1

[6] = tested on: lambsquarters; assay: Test Example 5: herbicidal effect by foliage application, plastic box (Table 20, symbol O); type: in vivo, lambsquarters (Chenopodium album); details: foliage application; for herbicidal effect on O: lambsquarters: 320 g/ha, evaluated three weeks after application
Summary of the method: as §1

[7] = tested on: Chinese sprangletop; assay: Test Example 3: herbicidal effect by foliage application, Wagner pot (Table 18, symbol D); type: in vivo, chinese sprangletop (Leptochloa chinensis); details: for herbicidal effect on D (Chinese sprangletop), rating 0-5: 320 g/ha
Summary of the method: (§2)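 Plants were sown in alluvial soil held under 0.1–0.5 cm standing water and grown 14 days in a greenhouse at 25–30 °C. An emulsifiable formulation, water-diluted to the set dose, was then sprayed onto the foliage, and effects were scored three weeks later using previously defined criteria.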

[8] = tested on: southern crabgrass; assay: Test Example 5: herbicidal effect by foliage application, plastic box (Table 20, symbol F); type: in vivo, southern crabgrass (Digitaria ciliaris); details: foliage application; for herbicidal effect on F: southern crabgrass: 320 g/ha, evaluated three weeks after application
Summary of the method: as §1

[9] = tested on: oval-leafed pondweed; assay: Test Example 1: herbicidal activity, application before weed generation under submerged conditions (Table 16, symbol C); type: in vivo, oval-leafed pondweed (Monochoria vaginalis); details: 320 g/ha applied herbicide
Summary of the method: (§3)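 Submerged Wagner pots (alluvial soil, 4 cm water) sown with weed seeds and planted with 2.5-leaf rice seedlings; emulsifiable concentrate diluted in water applied to water surface on sowing day. Held in greenhouse at 25-30 °C; injury scored 0-5 by herbicidal rate after three weeks.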

[10] = tested on: Japanese bulrush; assay: Test Example 1: herbicidal activity, application before weed generation under submerged conditions (Table 16, symbol B); type: in vivo, Japanese bulrush (Schoenoplectus juncoides); details: 320 g/ha applied herbicide
Summary of the method: as §3

[11] = tested on: Italian ryegrass; assay: Test Example 5: herbicidal effect by foliage application, plastic box (Table 20, symbol K); type: in vivo, Italian ryegrass (Lolium multiflorum); details: foliage application; for herbicidal effect on K: Italian ryegrass: 320 g/ha, evaluated three weeks after application
Summary of the method: as §1

[12] = tested on: persian speedwell; assay: Test Example 5: herbicidal effect by foliage application, plastic box (Table 20, symbol R); type: in vivo, Persian speedwell (Veronica persica); details: foliage application; for herbicidal effect on R: persian speedwell: 320 g/ha, evaluated three weeks after application
Summary of the method: as §1

[13] = tested on: redroot pigweed; assay: Test Example 5: herbicidal effect by foliage application, plastic box (Table 20, symbol N); type: in vivo, redroot pigweed (Amaranthus retroflexus); details: foliage application; for herbicidal effect on N: redroot pigweed: 320 g/ha, evaluated three weeks after application
Summary of the method: as §1

[14] = tested on: barnyard grass; assay: Test Example 3: herbicidal effect by foliage application, Wagner pot (Table 18, symbol H); type: in vivo, barnyard grass (Echinochloa crus-galli); details: for herbicidal effect on H (barnyard grass), rating 0-5: 320 g/ha
Summary of the method: as §2

[15] = tested on: late watergrass; assay: Test Example 1: herbicidal activity, application before weed generation under submerged conditions (Table 16, symbol A); type: in vivo, late watergrass (Echinochloa oryzicola); details: 320 g/ha applied herbicide
Summary of the method: as §3

[16] = tested on: chickweed; assay: Test Example 5: herbicidal effect by foliage application, plastic box (Table 20, symbol P); type: in vivo, common chickweed (Stellaria media); details: foliage application; for herbicidal effect on P: chickweed: 320 g/ha, evaluated three weeks after application
Summary of the method: as §1

[17] = tested on: rice flat sedge; assay: Test Example 3: herbicidal effect by foliage application, Wagner pot (Table 18, symbol E); type: in vivo, rice flat sedge (Cyperus iria); details: for herbicidal effect on E (rice flat sedge), rating 0-5: 320 g/ha
Summary of the method: as §2

[18] = tested on: blackgrass; assay: Test Example 5: herbicidal effect by foliage application, plastic box (Table 20, symbol J); type: in vivo, blackgrass (Alopecurus myosuroides); details: foliage application; for herbicidal effect on J: blackgrass: 320 g/ha, evaluated three weeks after application
Summary of the method: as §1

[19] = AAH 320 g/ha, three weeks after application
[20] = amount of applied herbicide 320 g/ha

Structure (SMILES) | herbicidal effect on D (Chinese sprangletop), rating 0-5 [7] | Herbicidal effect on C: oval-leafed pondweed (grade 0-5) [9] | Herbicidal effect on B: Japanese bulrush (grade 0-5) [10] | herbicidal effect on H (barnyard grass), rating 0-5 [14] | Herbicidal effect on A: late watergrass (grade 0-5) [15] | herbicidal effect on E (rice flat sedge), rating 0-5 [17] | herbicidal effect on L: windgrass [1] | herbicidal effect on I: wild oat [2] | herbicidal effect on H: barnyard grass [3] | herbicidal effect on M: velvetleaf [4] | herbicidal effect on G: green foxtail [5] | herbicidal effect on O: lambsquarters [6] | herbicidal effect on F: southern crabgrass [8] | herbicidal effect on K: Italian ryegrass [11] | herbicidal effect on R: persian speedwell [12] | herbicidal effect on N: redroot pigweed [13] | herbicidal effect on P: chickweed [16] | herbicidal effect on J: blackgrass [18] | other results
COc1cccc(Cl)c1-c1sc2ccccc2c1-c1c(O)c(C)nn(C)c1=O [1-159] | 0 (Herbicidal rate of 5% or less (almost no effect)) | 0 (Herbicidal rate of 5% or less (almost no effect)) | 0 (Herbicidal rate of 5% or less (almost no effect)) | 2 (Herbicidal rate of 20% or more and less than 40%) | 2 (Herbicidal rate of 20% or more and less than 40%) | 0 (Herbicidal rate of 5% or less (almost no effect)) | – | – | – | – | – | – | – | – | – | – | – | – | L: windgrass, herbicidal effect [1, 19]: 0 (Herbicidal rate of 5% or less (almost no effect)); I: wild oat, herbicidal effect [2, 19]: 0 (Herbicidal rate of 5% or less (almost no effect)); H: barnyard grass, herbicidal effect [3, 19]: 0 (Herbicidal rate of 5% or less (almost no effect)); M: velvetleaf, herbicidal effect [4, 19]: 0 (Herbicidal rate of 5% or less (almost no effect)); G: green foxtail, herbicidal effect [5, 19]: 0 (Herbicidal rate of 5% or less (almost no effect)); O: lambsquarters, herbicidal effect [6, 19]: 0 (Herbicidal rate of 5% or less (almost no effect)); F: southern crabgrass, herbicidal effect [8, 19]: 0 (Herbicidal rate of 5% or less (almost no effect)); K: Italian ryegrass, herbicidal effect [11, 19]: 0 (Herbicidal rate of 5% or less (almost no effect)); R: persian speedwell, herbicidal effect [12, 19]: 5 (Herbicidal rate of 90% or more (almost completely withered)); N: redroot pigweed, herbicidal effect [13, 19]: 0 (Herbicidal rate of 5% or less (almost no effect)); P: chickweed, herbicidal effect [16, 19]: 5 (Herbicidal rate of 90% or more (almost completely withered)); J: blackgrass, herbicidal effect [18, 19]: 0 (Herbicidal rate of 5% or less (almost no effect))
COCCOCOc1c(C)nn(C)c(=O)c1-c1c(-c2ccc(OCC(=O)OC)cc2)sc2ccc(F)cc12 [2-071] | 3 (Herbicidal rate of 40% or more and less than 70%) | 0 (Herbicidal rate of 5% or less (almost no effect)) | 0 (Herbicidal rate of 5% or less (almost no effect)) | 2 (Herbicidal rate of 20% or more and less than 40%) | 3 (Herbicidal rate of 40% or more and less than 70%) | 2 (Herbicidal rate of 20% or more and less than 40%) | 0 (Herbicidal rate of 5% or less (almost no effect)) | 0 (Herbicidal rate of 5% or less (almost no effect)) | 0 (Herbicidal rate of 5% or less (almost no effect)) | 0 (Herbicidal rate of 5% or less (almost no effect)) | 0 (Herbicidal rate of 5% or less (almost no effect)) | 3 (Herbicidal rate of 40% or more and less than 70%) | 0 (Herbicidal rate of 5% or less (almost no effect)) | 0 (Herbicidal rate of 5% or less (almost no effect)) | 0 (Herbicidal rate of 5% or less (almost no effect)) | 4 (Herbicidal rate of 70% or more and less than 90%) | 3 (Herbicidal rate of 40% or more and less than 70%) | 0 (Herbicidal rate of 5% or less (almost no effect)) | –
CCCC(=O)Oc1c(C)nn(C)c(=O)c1-c1c(-c2ccc(Oc3ccccc3)cc2)sc2ccc(F)cc12 [2-073] | 3 (Herbicidal rate of 40% or more and less than 70%) | 0 (Herbicidal rate of 5% or less (almost no effect)) | 0 (Herbicidal rate of 5% or less (almost no effect)) | 4 (Herbicidal rate of 70% or more and less than 90%) | 3 (Herbicidal rate of 40% or more and less than 70%) | 3 (Herbicidal rate of 40% or more and less than 70%) | 0 (Herbicidal rate of 5% or less (almost no effect)) | 0 (Herbicidal rate of 5% or less (almost no effect)) | 1 (Herbicidal rate of 5% or more and less than 20%) | 3 (Herbicidal rate of 40% or more and less than 70%) | 2 (Herbicidal rate of 20% or more and less than 40%) | 3 (Herbicidal rate of 40% or more and less than 70%) | 0 (Herbicidal rate of 5% or less (almost no effect)) | 0 (Herbicidal rate of 5% or less (almost no effect)) | 4 (Herbicidal rate of 70% or more and less than 90%) | 3 (Herbicidal rate of 40% or more and less than 70%) | 5 (Herbicidal rate of 90% or more (almost completely withered)) | 0 (Herbicidal rate of 5% or less (almost no effect)) | –
COc1ccc(Br)cc1-c1sc2ccc(Br)cc2c1-c1c(O)c(C)nn(C)c1=O [2-129] | – | 0 (Herbicidal rate of 5% or less (almost no effect)) | 0 (Herbicidal rate of 5% or less (almost no effect)) | – | 5 (Herbicidal rate of 90% or more (almost completely withered)) | – | 0 (Herbicidal rate of 5% or less (almost no effect)) | 0 (Herbicidal rate of 5% or less (almost no effect)) | 0 (Herbicidal rate of 5% or less (almost no effect)) | 0 (Herbicidal rate of 5% or less (almost no effect)) | 0 (Herbicidal rate of 5% or less (almost no effect)) | 2 (Herbicidal rate of 20% or more and less than 40%) | 0 (Herbicidal rate of 5% or less (almost no effect)) | 0 (Herbicidal rate of 5% or less (almost no effect)) | 0 (Herbicidal rate of 5% or less (almost no effect)) | 0 (Herbicidal rate of 5% or less (almost no effect)) | 0 (Herbicidal rate of 5% or less (almost no effect)) | 0 (Herbicidal rate of 5% or less (almost no effect)) | herbicidal effect on D: Chinese sprangletop [7, 20]: 0 (Herbicidal rate of 5% or less (almost no effect)); herbicidal effect on H: barnyard grass [14, 20]: 3 (Herbicidal rate of 40% or more and less than 70%); herbicidal effect on E: rice flat sedge [17, 20]: 0 (Herbicidal rate of 5% or less (almost no effect))
